Measurements published in patent US10294202B2, “Pyrrolidinones as herbicides” (FMC Corporation, priority 2013, dated 2019).

How the values were obtained:
giant foxtail = experiment: Test A pre-/postemergence herbicide test; assay type: in vivo, Setaria faberii
Summary of the method: (§1)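 Formulated compound (non-phytotoxic solvent, surfactant) sprayed pre- onto soil of seeded loam/sand pots or post- onto seedlings at 1–2 leaves; ~10 d greenhouse; 0–100 visual control rating versus untreated.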

crabgrass, large = experiment: Test A pre-/postemergence herbicide test; assay type: in vivo, Digitaria sanguinalis
Summary of the method: as §1

corn = experiment: Test A pre-/postemergence herbicide test; assay type: in vivo, Zea mays
Summary of the method: as §1

morningglory = experiment: Test A pre-/postemergence herbicide test; assay type: in vivo, Ipomoea spp.
Summary of the method: as §1

velvetleaf = experiment: Test A pre-/postemergence herbicide test; assay type: in vivo, Abutilon theophrasti
Summary of the method: as §1

barnyardgrass [1] = experiment: Test A pre-/postemergence herbicide test; assay type: in vivo, Echinochloa crus-galli
Summary of the method: as §1

ducksalad = experiment: Test B flooded paddy test; assay type: in vivo, Heteranthera limosa; conditions: Flood, scale of 0 to 100 where 0 is no effect and 100 is complete control
Summary of the method: (§2)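 First, plants reach the 2-leaf stage; next, pots are flooded to 3 cm and compound is delivered into the water; finally, after 13 to 15 greenhouse days at constant depth, injury is graded visually from 0 to 100 against controls.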

barnyardgrass [2] = experiment: Test B flooded paddy test; assay type: in vivo, Echinochloa crus-galli; conditions: Flood, scale of 0 to 100 where 0 is no effect and 100 is complete control
Summary of the method: as §2

wheat = experiment: Test A pre-/postemergence herbicide test; assay type: in vivo, Triticum aestivum
Summary of the method: as §1

sedge, umbrella = experiment: Test B flooded paddy test; assay type: in vivo, Cyperus difformis; conditions: Flood, scale of 0 to 100 where 0 is no effect and 100 is complete control
Summary of the method: as §2

rice = experiment: Test B flooded paddy test; assay type: in vivo, Oryza sativa; conditions: Flood, scale of 0 to 100 where 0 is no effect and 100 is complete control
Summary of the method: as §2

pigweed = experiment: Test A pre-/postemergence herbicide test; assay type: in vivo, Amaranthus retroflexus
Summary of the method: as §1

[3] = Postemergence, 125 g ai/ha, 0 to 100 scale, 0 is no effect, 100 is complete control
[4] = Postemergence, 500 g ai/ha, 0 to 100 scale (0 no effect, 100 complete control)
[5] = Preemergence, 125 g ai/ha, 0 to 100 scale where 0 is no effect and 100 is complete control
[6] = preemergence, 500 g ai/ha, 0 to 100 scale, 0 is no effect and 100 is complete control
[7] = Postemergence, 125 g ai/ha, visual rating on 0 to 100 scale (0 no effect, 100 complete control), approx. 10 days
[8] = Postemergence, 125 g ai/ha, 0 to 100 scale, 0 no effect, 100 complete control
[9] = Preemergence, 125 g ai/ha, visual rating on 0 to 100 scale (0 no effect, 100 complete control)
[10] = preemergence, 500 g ai/ha, 0 to 100 scale

O=C1NCC(c2ccc(C(F)(F)F)cc2F)C1C(=O)Nc1cccc(F)c1F (racemic) [Compound 260]
Plant response rating, Foxtail, Giant (giant foxtail; [3]): 80 | Plant response rating, Foxtail, Giant (giant foxtail; [4]): 90 | Plant response rating, Foxtail, Giant (giant foxtail; [5]): 80 | Plant response rating, Foxtail, Giant (giant foxtail; [6]): 90 | Plant response rating, Crabgrass, Large (crabgrass, large; [3]): 90 | Plant response rating, Crabgrass, Large (crabgrass, large; [4]): 90 | Plant response rating, Crabgrass, Large (crabgrass, large; [5]): 90 | Plant response rating, Crabgrass, Large (crabgrass, large; [6]): 90 | Plant response rating, Corn (corn; [3]): 0 | Plant response rating, Corn (corn; [4]): 0 | Plant response rating, Corn (corn; [5]): 0 | Plant response rating, Corn (corn; [6]): 10 | Plant response rating, Morningglory (morningglory; [3]): 0 | Plant response rating, Morningglory (morningglory; [4]): 50 | Plant response rating, Morningglory (morningglory; [5]): 20 | Plant response rating, Morningglory (morningglory; [6]): 50 | Plant response rating, Velvetleaf (velvetleaf; [6]): 40 | Plant response rating, Barnyardgrass (barnyardgrass [1]; [3]): 70 | Plant response rating, Barnyardgrass (barnyardgrass [1]; [4]): 80 | Plant response rating, Barnyardgrass (barnyardgrass [1]; [5]): 70 | Plant response rating, Barnyardgrass (barnyardgrass [1]; [6]): 80 | Plant response rating, Ducksalad (ducksalad; 1000 g ai/ha): 95 | Plant response rating, Barnyardgrass (barnyardgrass [2]; 1000 g ai/ha): 0 | Plant response rating, Wheat (wheat; [3]): 0 | Plant response rating, Wheat (wheat; [4]): 0 | Plant response rating, Wheat (wheat; [5]): 0 | Plant response rating, Wheat (wheat; [6]): 0 | Plant response rating, Sedge, Umbrella (sedge, umbrella; 1000 g ai/ha): 0 | Plant response rating, Rice (rice; 1000 g ai/ha): 0 | Plant response rating, Pigweed (pigweed; [3]): 60 | Plant response rating, Pigweed (pigweed; [4]): 70 | Plant response rating, Pigweed (pigweed; [5]): 60 | Plant response rating, Pigweed (pigweed; [6]): 80

O=C1NCC(c2ccc(C(F)(F)F)cc2F)C1C(=O)Nc1ccccc1C(F)(F)F (racemic) [Compound 261]
Plant response rating, Foxtail, Giant (giant foxtail; [3]): 0 | Plant response rating, Foxtail, Giant (giant foxtail; [4]): 60 | Plant response rating, Foxtail, Giant (giant foxtail; [5]): 10 | Plant response rating, Foxtail, Giant (giant foxtail; [6]): 70 | Plant response rating, Crabgrass, Large (crabgrass, large; [3]): 70 | Plant response rating, Crabgrass, Large (crabgrass, large; [4]): 80 | Plant response rating, Crabgrass, Large (crabgrass, large; [5]): 80 | Plant response rating, Crabgrass, Large (crabgrass, large; [6]): 90 | Plant response rating, Corn (corn; [3]): 0 | Plant response rating, Corn (corn; [4]): 0 | Plant response rating, Corn (corn; [5]): 0 | Plant response rating, Corn (corn; [6]): 0 | Plant response rating, Morningglory (morningglory; [3]): 0 | Plant response rating, Morningglory (morningglory; [4]): 0 | Plant response rating, Morningglory (morningglory; [5]): 0 | Plant response rating, Morningglory (morningglory; [6]): 0 | Plant response rating, Velvetleaf (velvetleaf; [3]): 0 | Plant response rating, Velvetleaf (velvetleaf; [4]): 30 | Plant response rating, Velvetleaf (velvetleaf; [5]): 0 | Plant response rating, Velvetleaf (velvetleaf; [6]): 0 | Plant response rating, Barnyardgrass (barnyardgrass [1]; [3]): 0 | Plant response rating, Barnyardgrass (barnyardgrass [1]; [4]): 50 | Plant response rating, Barnyardgrass (barnyardgrass [1]; [5]): 0 | Plant response rating, Barnyardgrass (barnyardgrass [1]; [6]): 0 | Plant response rating, Ducksalad (ducksalad; 1000 g ai/ha): 90 | Plant response rating, Barnyardgrass (barnyardgrass [2]; 1000 g ai/ha): 0 | Plant response rating, Wheat (wheat; [3]): 0 | Plant response rating, Wheat (wheat; [4]): 0 | Plant response rating, Wheat (wheat; [5]): 0 | Plant response rating, Wheat (wheat; [6]): 0 | Plant response rating, Sedge, Umbrella (sedge, umbrella; 1000 g ai/ha): 0 | Plant response rating, Rice (rice; 1000 g ai/ha): 0 | Plant response rating, Pigweed (pigweed; [3]): 0 | Plant response rating, Pigweed (pigweed; [4]): 40 | Plant response rating, Pigweed (pigweed; [5]): 0 | Plant response rating, Pigweed (pigweed; [6]): 0

O=C1NCC(c2ccc(Cl)c(C(F)(F)F)c2)C1C(=O)Nc1ccccc1F (racemic) [Compound 267]
Plant response rating, Foxtail, Giant (giant foxtail; [3]): 70 | Plant response rating, Foxtail, Giant (giant foxtail; [4]): 80 | Plant response rating, Foxtail, Giant (giant foxtail; [5]): 80 | Plant response rating, Foxtail, Giant (giant foxtail; [6]): 90 | Plant response rating, Crabgrass, Large (crabgrass, large; [3]): 80 | Plant response rating, Crabgrass, Large (crabgrass, large; [4]): 90 | Plant response rating, Crabgrass, Large (crabgrass, large; [5]): 90 | Plant response rating, Crabgrass, Large (crabgrass, large; [6]): 90 | Plant response rating, Corn (corn; [3]): 40 | Plant response rating, Corn (corn; [4]): 70 | Plant response rating, Corn (corn; [5]): 0 | Plant response rating, Corn (corn; [6]): 0 | Plant response rating, Morningglory (morningglory; [7]): 0 | Plant response rating, Morningglory (morningglory; [4]): 60 | Plant response rating, Morningglory (morningglory; [5]): 0 | Plant response rating, Morningglory (morningglory; [6]): 0 | Plant response rating, Velvetleaf (velvetleaf; [7]): 30 | Plant response rating, Velvetleaf (velvetleaf; [5]): 0 | Plant response rating, Velvetleaf (velvetleaf; [6]): 0 | Plant response rating, Barnyardgrass (barnyardgrass [1]; [3]): 70 | Plant response rating, Barnyardgrass (barnyardgrass [1]; [4]): 80 | Plant response rating, Barnyardgrass (barnyardgrass [1]; [5]): 70 | Plant response rating, Barnyardgrass (barnyardgrass [1]; [6]): 80 | Plant response rating, Ducksalad (ducksalad; 1000 g ai/ha): 100 | Plant response rating, Barnyardgrass (barnyardgrass [2]; 1000 g ai/ha): 20 | Plant response rating, Wheat (wheat; [7]): 0 | Plant response rating, Wheat (wheat; [4]): 0 | Plant response rating, Wheat (wheat; [5]): 0 | Plant response rating, Wheat (wheat; [6]): 0 | Plant response rating, Sedge, Umbrella (sedge, umbrella; 1000 g ai/ha): 0 | Plant response rating, Rice (rice; 1000 g ai/ha): 15 | Plant response rating, Pigweed (pigweed; [7]): 0 | Plant response rating, Pigweed (pigweed; [4]): 60 | Plant response rating, Pigweed (pigweed; [5]): 0 | Plant response rating, Pigweed (pigweed; [6]): 50

Cc1cccc(C2CN(C(=O)OC(C)(C)C)C(=O)C2C(=O)Nc2ccccc2F)c1 (centres unmarked) [Compound 37]
Plant response rating, Foxtail, Giant (giant foxtail; [8]): 0 | Plant response rating, Foxtail, Giant (giant foxtail; [4]): 20 | Foxtail, Giant plant response rating (giant foxtail; [9]): 0 | Plant response rating, Foxtail, Giant (giant foxtail; [10]): 20 | Plant response rating, Crabgrass, Large (crabgrass, large; [8]): 0 | Plant response rating, Crabgrass, Large (crabgrass, large; [4]): 20 | Crabgrass, Large plant response rating (crabgrass, large; [9]): 0 | Plant response rating, Crabgrass, Large (crabgrass, large; [10]): 80 | Plant response rating, Corn (corn; [8]): 0 | Plant response rating, Corn (corn; [4]): 0 | Corn plant response rating (corn; [9]): 0 | Plant response rating, Corn (corn; [10]): 0 | Plant response rating, Morningglory (morningglory; [8]): 0 | Plant response rating, Morningglory (morningglory; [4]): 0 | Morningglory plant response rating (morningglory; [9]): 0 | Plant response rating, Morningglory (morningglory; [10]): 0 | Plant response rating, Velvetleaf (velvetleaf; [8]): 0 | Plant response rating, Velvetleaf (velvetleaf; [4]): 0 | Velvetleaf plant response rating (velvetleaf; [9]): 0 | Plant response rating, Velvetleaf (velvetleaf; [10]): 0 | Plant response rating, Barnyardgrass (barnyardgrass [1]; [8]): 0 | Plant response rating, Barnyardgrass (barnyardgrass [1]; [4]): 50 | Barnyardgrass plant response rating (barnyardgrass [1]; [9]): 0 | Plant response rating, Barnyardgrass (barnyardgrass [1]; preemergence, 500 g ai/ha, 0 to 100 scale (0 no effect, 100 complete control)): 80 | Plant response rating, Ducksalad (ducksalad; 250 g ai/ha): 0 | Plant response rating, Barnyardgrass (barnyardgrass [2]; 250 g ai/ha): 0 | Plant response rating, Wheat (wheat; [8]): 0 | Plant response rating, Wheat (wheat; [4]): 0 | Wheat plant response rating (wheat; [9]): 0 | Plant response rating, Wheat (wheat; [10]): 30 | Plant response rating, Sedge, Umbrella (sedge, umbrella; 250 g ai/ha): 20 | Plant response rating, Rice (rice; 250 g ai/ha): 0 | Plant response rating, Pigweed (pigweed; [8]): 0 | Plant response rating, Pigweed (pigweed; [4]): 0 | Pigweed plant response rating (pigweed; [9]): 0 | Plant response rating, Pigweed (pigweed; [10]): 0
